# Test results: US10947289B2, “Glyco-modified atrial natriuretic peptide” (priority 2013, dated 2021)
# What was measured:
# human GC-A = biological target: T1, human GC-A (Homo sapiens, UniProt P16066); assay: cGMP elevating activity in CHO/human GC-A cells (Test Example 1); format: cell-based
# T1 construct: expressed in transfected cells; host or cells: CHO cells
# T1 sequence (P16066 33-1061): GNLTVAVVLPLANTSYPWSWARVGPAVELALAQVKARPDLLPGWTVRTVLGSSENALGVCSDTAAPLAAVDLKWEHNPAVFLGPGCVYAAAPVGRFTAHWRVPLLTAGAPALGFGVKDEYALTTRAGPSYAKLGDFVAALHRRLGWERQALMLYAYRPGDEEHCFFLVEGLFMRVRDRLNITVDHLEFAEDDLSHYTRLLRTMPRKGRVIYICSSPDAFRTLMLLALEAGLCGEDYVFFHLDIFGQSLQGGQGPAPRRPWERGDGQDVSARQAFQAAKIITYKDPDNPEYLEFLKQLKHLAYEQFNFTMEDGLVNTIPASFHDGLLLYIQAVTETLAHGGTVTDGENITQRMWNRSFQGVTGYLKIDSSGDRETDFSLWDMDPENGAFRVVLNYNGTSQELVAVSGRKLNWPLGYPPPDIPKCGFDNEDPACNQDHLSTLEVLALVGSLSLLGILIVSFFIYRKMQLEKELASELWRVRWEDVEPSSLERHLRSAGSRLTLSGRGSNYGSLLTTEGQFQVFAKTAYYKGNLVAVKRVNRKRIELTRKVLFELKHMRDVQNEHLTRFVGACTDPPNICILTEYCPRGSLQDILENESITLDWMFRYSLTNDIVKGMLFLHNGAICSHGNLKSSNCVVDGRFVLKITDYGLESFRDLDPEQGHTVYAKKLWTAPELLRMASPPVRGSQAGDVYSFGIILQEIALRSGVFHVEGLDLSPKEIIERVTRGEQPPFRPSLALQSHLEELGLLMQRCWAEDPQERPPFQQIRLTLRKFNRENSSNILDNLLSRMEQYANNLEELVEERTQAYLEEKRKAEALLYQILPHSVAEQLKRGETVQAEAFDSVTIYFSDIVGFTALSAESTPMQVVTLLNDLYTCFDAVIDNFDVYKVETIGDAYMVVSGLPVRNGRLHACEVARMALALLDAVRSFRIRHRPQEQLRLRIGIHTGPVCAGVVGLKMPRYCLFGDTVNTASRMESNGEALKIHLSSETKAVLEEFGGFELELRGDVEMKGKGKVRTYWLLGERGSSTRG
# Outline: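 CHO cells stably expressing human GC-A, pre-incubated 10 min at room temperature in 1.6 mM IBMX/KRB, then exposed to test peptide 15 min in CO2 incubator. Lysate cGMP measured by HTRF. Activity (T/C) scaled so solvent-only = 0 and 1 nM ANP = 1.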
# [1] = Detection of test substance in rat plasma by LC-MS/MS (Test Example 3); format: in vivo; conditions: rat plasma, 100 nmol/kg i.v., LC-MS/MS; time at which the test substance was finally detected
# Experimental: Before the administration and 15, 30, 60, 90, 120, 180, and 240 minutes after the administration, blood was sampled (200 μL/sampling) over time from the jugular vein. The blood samples were immediately left on ice.
# The collected blood samples were centrifuged at 5000 rpm at 4° C. for 5 minutes by use of a centrifuge (Sigma 4K15, rotor: Nr12130-H). The separated plasma samples were divided into two types (samples for PK measurement and for cGMP measurement) and stored at −80° C. until measurement.
# An internal standard (20 μL (500 nM) of a stable isotope of hANP) and an acetic acid mixed solvent (AcOH/distilled water/DMSO=5/3/2, v/v/v) were added to 50 μL of each rat plasma sample prepared in (1) and then mixed therewith. The mixture was transferred to Amicon Ultra-0.5 50K (Millipore Corp., MA) and centrifuged at 14000 rpm at 15° C. for 30 minutes. The obtained filtrate was transferred to Amicon Ultra-0.5 3K (Millipore Corp., MA) and centrifuged again under the aforementioned conditions. The solution remaining on the filter was recovered and transferred to a 96-well deep well plate. The content of the test substance was measured by LC-MS/MS (LC: Shimadzu LC-10ADVP (Shimadzu Corp.), MS/MS: API 4000 QTrap (AB SCIEX)) to calculate the concentration in plasma. The time at which the test substance was finally detected is shown in the rightmost column of Table 2.
SMILES,EC50 (human GC-A) [nM],Maximum time of detection after administration [1] [h]
"CC[C@H](C)[C@@H]1NC(=O)[C@H](CCCNC(=N)N)NC(=O)[C@H](CC(=O)O)NC(=O)[C@H](CCSC)NC(=O)[C@H](CCCNC(=N)N)NC(=O)CNC(=O)CNC(=O)[C@H](Cc2ccccc2)NC(=O)[C@@H](NC(=O)[C@H](CO)NC(=O)[C@H](CO)NC(=O)[C@H](CCCNC(=N)N)NC(=O)[C@H](CCCNC(=N)N)NC(=O)[C@H](CC(C)C)NC(=O)[C@H](CO)NC(=O)CCOCCOCCOCCOCCOCCOCCOCCOCCOCCOCCOCCOCCNC(=O)[C@H](CC(=O)N[C@@H]2O[C@H](CO)[C@@H](O[C@@H]3O[C@H](CO)[C@@H](O[C@@H]4O[C@H](CO[C@H]5O[C@H](CO)[C@@H](O)[C@H](O)[C@@H]5O[C@@H]5O[C@H](CO)[C@@H](O[C@@H]6O[C@H](CO[C@]7(C(=O)O)C[C@H](O)[C@@H](NC(C)=O)[C@H]([C@H](O)[C@H](O)CO)O7)[C@H](O)[C@H](O)[C@H]6O)[C@H](O)[C@H]5NC(C)=O)[C@@H](O)[C@H](O[C@H]5O[C@H](CO)[C@@H](O)[C@H](O)[C@@H]5O[C@@H]5O[C@H](CO)[C@@H](O[C@@H]6O[C@H](CO[C@]7(C(=O)O)C[C@H](O)[C@@H](NC(C)=O)[C@H]([C@H](O)[C@H](O)CO)O7)[C@H](O)[C@H](O)[C@H]6O)[C@H](O)[C@H]5NC(C)=O)[C@@H]4O)[C@H](O)[C@H]3NC(C)=O)[C@H](O)[C@H]2NC(C)=O)NC(=O)CO[C@@H]2O[C@H](CO)[C@@H](O[C@@H]3O[C@H](CO)[C@@H](O[C@@H]4O[C@H](CO[C@H]5O[C@H](CO)[C@@H](O)[C@H](O)[C@@H]5O[C@@H]5O[C@H](CO)[C@@H](O[C@@H]6O[C@H](CO[C@]7(C(=O)O)C[C@H](O)[C@@H](NC(C)=O)[C@H]([C@H](O)[C@H](O)CO)O7)[C@H](O)[C@H](O)[C@H]6O)[C@H](O)[C@H]5NC(C)=O)[C@@H](O)[C@H](O[C@H]5O[C@H](CO)[C@@H](O)[C@H](O)[C@@H]5O[C@@H]5O[C@H](CO)[C@@H](O[C@@H]6O[C@H](CO[C@]7(C(=O)O)C[C@H](O)[C@@H](NC(C)=O)[C@H]([C@H](O)[C@H](O)CO)O7)[C@H](O)[C@H](O)[C@H]6O)[C@H](O)[C@H]5NC(C)=O)[C@@H]4O)[C@H](O)[C@H]3NC(C)=O)[C@H](O)[C@H]2NC(C)=O)CSSC[C@@H](C(=O)N[C@@H](CC(N)=O)C(=O)N[C@@H](CO)C(=O)N[C@@H](Cc2ccccc2)C(=O)N[C@@H](CCCNC(=N)N)C(=O)N[C@@H](Cc2ccc(O)cc2)C(=O)O)NC(=O)CNC(=O)[C@H](CC(C)C)NC(=O)CNC(=O)[C@H](CO)NC(=O)[C@H](CCC(N)=O)NC(=O)[C@H](C)NC(=O)CNC1=O [Compound 2-27, SG-(SG-)Asn-PEG(11)-hANP(1-28)]",0.26,2
"CC[C@H](C)[C@@H]1NC(=O)[C@H](CCCNC(=N)N)NC(=O)[C@H](CC(=O)O)NC(=O)[C@H](CCSC)NC(=O)[C@H](CCCNC(=N)N)NC(=O)CNC(=O)CNC(=O)[C@H](Cc2ccccc2)NC(=O)[C@@H](NC(=O)[C@H](CO)NC(=O)[C@H](CO)NC(=O)[C@H](CCCNC(=N)N)NC(=O)[C@H](CCCNC(=N)N)NC(=O)[C@H](CC(C)C)NC(=O)[C@H](CO)NC(=O)CNC(=O)[C@H](CSC2CC(=O)N(CCC(=O)NCCO[C@@H]3O[C@H](CO)[C@@H](O[C@@H]4O[C@H](CO)[C@@H](O[C@@H]5O[C@H](CO[C@H]6O[C@H](CO)[C@@H](O)[C@H](O)[C@@H]6O[C@@H]6O[C@H](CO)[C@@H](O[C@@H]7O[C@H](CO[C@]8(C(=O)O)C[C@H](O)[C@@H](NC(C)=O)[C@H]([C@H](O)[C@H](O)CO)O8)[C@H](O)[C@H](O)[C@H]7O)[C@H](O)[C@H]6NC(C)=O)[C@@H](O)[C@H](O[C@H]6O[C@H](CO)[C@@H](O)[C@H](O)[C@@H]6O[C@@H]6O[C@H](CO)[C@@H](O[C@@H]7O[C@H](CO[C@]8(C(=O)O)C[C@H](O)[C@@H](NC(C)=O)[C@H]([C@H](O)[C@H](O)CO)O8)[C@H](O)[C@H](O)[C@H]7O)[C@H](O)[C@H]6NC(C)=O)[C@@H]5O)[C@H](O)[C@H]4NC(C)=O)[C@H](O)[C@H]3NC(C)=O)C2=O)NC(=O)CNC(=O)[C@H](CSC2CC(=O)N(CCC(=O)NCCO[C@@H]3O[C@H](CO)[C@@H](O[C@@H]4O[C@H](CO)[C@@H](O[C@@H]5O[C@H](CO[C@H]6O[C@H](CO)[C@@H](O)[C@H](O)[C@@H]6O[C@@H]6O[C@H](CO)[C@@H](O[C@@H]7O[C@H](CO[C@]8(C(=O)O)C[C@H](O)[C@@H](NC(C)=O)[C@H]([C@H](O)[C@H](O)CO)O8)[C@H](O)[C@H](O)[C@H]7O)[C@H](O)[C@H]6NC(C)=O)[C@@H](O)[C@H](O[C@H]6O[C@H](CO)[C@@H](O)[C@H](O)[C@@H]6O[C@@H]6O[C@H](CO)[C@@H](O[C@@H]7O[C@H](CO[C@]8(C(=O)O)C[C@H](O)[C@@H](NC(C)=O)[C@H]([C@H](O)[C@H](O)CO)O8)[C@H](O)[C@H](O)[C@H]7O)[C@H](O)[C@H]6NC(C)=O)[C@@H]5O)[C@H](O)[C@H]4NC(C)=O)[C@H](O)[C@H]3NC(C)=O)C2=O)NC(=O)CNC(=O)[C@H](CSC2CC(=O)N(CCC(=O)NCCO[C@@H]3O[C@H](CO)[C@@H](O[C@@H]4O[C@H](CO)[C@@H](O[C@@H]5O[C@H](CO[C@H]6O[C@H](CO)[C@@H](O)[C@H](O)[C@@H]6O[C@@H]6O[C@H](CO)[C@@H](O[C@@H]7O[C@H](CO[C@]8(C(=O)O)C[C@H](O)[C@@H](NC(C)=O)[C@H]([C@H](O)[C@H](O)CO)O8)[C@H](O)[C@H](O)[C@H]7O)[C@H](O)[C@H]6NC(C)=O)[C@@H](O)[C@H](O[C@H]6O[C@H](CO)[C@@H](O)[C@H](O)[C@@H]6O[C@@H]6O[C@H](CO)[C@@H](O[C@@H]7O[C@H](CO[C@]8(C(=O)O)C[C@H](O)[C@@H](NC(C)=O)[C@H]([C@H](O)[C@H](O)CO)O8)[C@H](O)[C@H](O)[C@H]7O)[C@H](O)[C@H]6NC(C)=O)[C@@H]5O)[C@H](O)[C@H]4NC(C)=O)[C@H](O)[C@H]3NC(C)=O)C2=O)NC(C)=O)CSSC[C@@H](C(=O)N[C@@H](CC(N)=O)C(=O)N[C@@H](CO)C(=O)N[C@@H](Cc2ccccc2)C(=O)N[C@@H](CCCNC(=N)N)C(=O)N[C@@H](Cc2ccc(O)cc2)C(=O)O)NC(=O)CNC(=O)[C@H](CC(C)C)NC(=O)CNC(=O)[C@H](CO)NC(=O)[C@H](CCC(N)=O)NC(=O)[C@H](C)NC(=O)CNC1=O (stereo partly shown) [Compound 2-15, [(SG-)Cys-Gly]3-hANP(1-28)]",3.1,1.5
